Holding throughout (format): in vivo
The test system of one experiment is Aphis gossypii. Kind of experiment: Insecticidal Test on Aphis gossypii. The note with it: foliar, 144 h. The procedure:
(§1) Wet absorbent cotton was laid on glass dishes having an inner diameter of 3 cm, and covered with leaves of cucumber cut into circles of the same diameter, and 4 apterous adults of Aphis gossypii were released. After a day, 10% emulsifiable concentrates (or 10% wettable powders) of compounds of the present invention were diluted with water containing a spreader to obtain 500 ppm solutions, and the solution were sprayed from a rotary spray tower (2.5 mg/cm^2). The dishes were covered with lids and placed in an incubator at 25° C. 6 Days after, dead insects were counted, and the mortality was calculated by using the same equation as in Test Example 1. The test was carried out in duplicate.

Another experiment concerns Myzus persicae. Kind of experiment: Insecticidal Test on Myzus persicae. As to conditions: foliar, 144 h. The procedure: as §1, with “Canarium album” for “cucumber”, “Myzus persicae” for “Aphis gossypii”
Another experiment relates to Nilaparvata lugens. Kind of experiment: Insecticidal Test on Nilaparvata lugens. The note with it: 144 h. The procedure:
10% emulsifiable concentrates (or 10% wettable powders) of compounds of the present invention were diluted with water containing a spreader to obtain 500 ppm solutions. Rice sheaths were soaked in the solutions for about 10 seconds, dried in air and put in test tubes. In each tube, five 2nd-instar nymphs of Nilaparvata lugens were released, and the tubes were capped with sponge and placed in an incubator at 25° C. 6 Days after, dead insects were counted, and the mortality (%) (the number of dead insects÷the number of released insects×100) was calculated. The test was carried out in duplicate.

A further experiment relates to Bemisia argentifolii. Nature of the experiment: Insecticidal Test on Bemisia argentifolii. As to conditions: 120 h. On the procedure:
In styrol cups having an inner diameter of 7 cm, wet filter paper was laid, and kidney bean leaves cut to 3 cm were laid on the paper. 10% emulsifiable concentrates (or 10% wettable powders) of compounds of the present invention were diluted with water containing a spreader to obtain 500 ppm solutions. 2.5 ml of the solutions were sprayed from a rotary spray tower into the styrol cups (2.5 mg/cm^2). The leaves were dried in air, and adults of Bemisia argentifolii were released in the cups. The cups were closed and placed in an incubator at 25° C. 5 Days after, dead insects were counted, and the mortality was calculated by using the same equation as in Test Example 1. The test was carried out in duplicate.

[1] abbreviates: 500 ppm solution sprayed, apterous adults on cucumber leaf discs, 25° C., 6 days after, read-out: mortality.
Where [2] appears, read: 500 ppm solution sprayed, apterous adults on leaf discs, 25° C., 6 days after, read-out: mortality.
[3] abbreviates: 500 ppm solution, rice sheaths soaked, 2nd-instar nymphs, 25° C., 6 days after, read-out: mortality (%).
[4] abbreviates: 500 ppm solution sprayed on kidney bean leaves, adults, 25° C., 5 days after, read-out: mortality.

In general, mortality refers to the share of the test organisms that died.

Where a name gives a salt, the structure may show the parent alone. Read-outs that look alike come from different tables or passages of the source. A value given as a limit tells only on which side of the number the result lay.

As for `CCSC(C)C(=O)N(CC)c1cnn(C(C)(C)C)c1Cl` (stereo not shown) [1-001, N-(1-tert-butyl-5-chloro-1H-pyrazol-4-yl)-N-ethyl-2-(ethylthio)propanamide], the mortality at 500 ppm in the experiment on Aphis gossypii (setting [1]) and with Myzus persicae (setting [2]) was not below 90% throughout. As to `Cc1nn(-c2cccnc2)cc1N(C)C(=O)OC(C)(C)C` [1-012, tert-butyl methyl{3-methyl-1-(pyridin-3-yl)-1H-pyrazol-4-yl}carbamate], the mortality at 500 ppm in the experiment with Nilaparvata lugens (in Oryza sativa), in the experiment with Bemisia argentifolii and in the experiment on Myzus persicae was not below 90% throughout.

With `CSCCC(=O)N(C)c1cn(-c2cccnc2)nc1C` [1-018, N-methyl-N-{3-methyl-1-(pyridin-3-yl)-1H-pyrazol-4-yl}-3-(methylthio)propanamide], the mortality at 500 ppm in the experiment with Nilaparvata lugens (setting [3]) and in the experiment with Myzus persicae (setting [2]) was not below 90% throughout. For the molecule `O=C1C(Br)CCCN1c1cnn(-c2cccnc2)c1` (stereo not shown) [1-027, 3-bromo-1-{1-(pyridin-3-yl)-1H-pyrazol-4-yl}piperidin-2-one], in the experiment on Myzus persicae (setting [2]), the mortality at 500 ppm was not below 90%. In the case of `CSC1CCCN(c2cnn(-c3cccnc3)c2)C1=O` (stereo not shown) [1-028, 3-(methylthio)-1-{1-(pyridin-3-yl)-1H-pyrazol-4-yl}piperidin-2-one], the mortality at 500 ppm with Aphis gossypii (setting [1]), in the experiment on Nilaparvata lugens (setting [3]), with Bemisia argentifolii (setting [4]) and in the experiment with Myzus persicae (setting [2]) was not below 90% throughout.

`CN(C(=O)OC(C)(C)C)c1cn(-c2cccnc2)nc1Cl` [1-037, tert-butyl 3-chloro-1-(pyridin-3-yl)-1H-pyrazol-4-yl(methyl)carbamate] showed a mortality at 500 ppm in the experiment on Bemisia argentifolii not below 90%.

On to `CC(C)(C)OC(=O)Nc1cn(-c2cccnc2)nc1Cl` [1-046, tert-butyl 3-chloro-1-(pyridin-3-yl)-1H-pyrazol-4-ylcarbamate], for which the mortality at 500 ppm in the experiment with Bemisia argentifolii (setting [4]) was not below 90%. `CCN(C(=O)OC(C)(C)C)c1cn(-c2cccnc2)nc1Cl` [1-056, tert-butyl 3-chloro-1-(pyridin-3-yl)-1H-pyrazol-4-yl(ethyl)carbamate]: the mortality at 500 ppm in the experiment with Aphis gossypii and in the experiment on Bemisia argentifolii was not below 90% each time. For the molecule `O=C(CCCCl)Nc1cn(-c2cccnc2)nc1Cl` [1-131, 4-chloro-N-{3-chloro-1-(pyridin-3-yl)-1H-pyrazol-4-yl}butanamide], the mortality at 500 ppm in the experiment on Nilaparvata lugens (setting [3]) is not below 90%. For the molecule `O=C1CCCN1c1cn(-c2cccnc2)nc1Cl` [1-132, 1-{3-chloro-1-(pyridin-3-yl)-1H-pyrazol-4-yl}pyrrolidin-2-one], the mortality at 500 ppm in the experiment with Myzus persicae (setting [2]) is not below 90%. On the same count and under the same terms, then `C=C1CCN(c2cn(-c3cccnc3)nc2Cl)C1=O` [1-133, 1-{3-chloro-1-(pyridin-3-yl)-1H-pyrazol-4-yl}-3-methylenepyrrolidin-2-one], with not below 90%. For the molecule `C=CC(=O)N(CC)c1cn(-c2cccnc2)nc1Cl` [1-152, N-{3-chloro-1-(pyridin-3-yl)-1H-pyrazol-4-yl}-N-ethylacrylamide], the mortality at 500 ppm in the experiment on Bemisia argentifolii (setting [4]) was not below 90%.

Consider `CSCCCN(C(C)=O)c1cn(-c2cccnc2)nc1Cl` [1-153, N-{3-chloro-1-(pyridin-3-yl)-1H-pyrazol-4-yl}-N-{3-(methylthio)propyl}acetamide], for which the mortality at 500 ppm in the experiment with Aphis gossypii (setting [1]) and in the experiment with Bemisia argentifolii (setting [4]) was not below 90% throughout. On to `CC(C)(C)OC(=O)Nc1cn(-c2cccnc2)nc1Br` [1-188, tert-butyl 3-bromo-1-(pyridin-3-yl)-1H-pyrazol-4-ylcarbamate], for which the mortality at 500 ppm with Nilaparvata lugens (setting [3]) and with Bemisia argentifolii (setting [4]) was not below 90% each time. Turning to `CCSC(C)C(=NOC)Nc1cn(-c2cccnc2)nc1Cl` (stereo not shown) [1-356, N-{3-chloro-1-(pyridin-3-yl)-1H-pyrazol-4-yl}-2-(ethylthio)-N′-methoxypropanimidamide], the mortality at 500 ppm with Nilaparvata lugens (setting [3]) and in the experiment with Bemisia argentifolii (setting [4]) was not below 90% throughout.

Consider `CN(C1=NCCS1)c1cn(-c2cccnc2)nc1Cl` [3-001, N-{3-chloro-1-(pyridin-3-yl)-1H-pyrazol-4-yl}-N-methyl-4,5-dihydrothiazole-2-amine], for which, in the experiment with Bemisia argentifolii (setting [4]), the mortality at 500 ppm was not below 90%. Take `Cc1c(NC(=O)OC(C)(C)C)cnn1-c1cccnc1` [5-001, tert-butyl 5-methyl-1-(pyridin-3-yl)-1H-pyrazol-4-ylcarbamate]: the mortality at 500 ppm with Aphis gossypii (setting [1]) was not below 90%. On the same count and under the same terms, then `CNc1cn(-c2cccnc2)nc1C` [A-001, N,3-dimethyl-1-(pyridin-3-yl)-1H-pyrazole-4-amine dihydrochloride], with not below 90%.

On to `CNc1cn(-c2cccnc2)nc1Cl` [A-003, 3-chloro-N-methyl-1-(pyridin-3-yl)-1H-pyrazole-4-amine dihydrochloride], for which the mortality at 500 ppm in the experiment on Myzus persicae (setting [2]) was not below 90%.

As to `CCNc1cn(-c2cccnc2)nc1Cl` [A-004, 3-chloro-N-ethyl-1-(pyridin-3-yl)-1H-pyrazole-4-amine dihydrochloride], the mortality at 500 ppm in the experiment on Myzus persicae (setting [2]) was not below 90%. For the molecule `Cc1nn(-c2cccnc2)cc1N` [A-009, 3-methyl-1-(pyridin-3-yl)-1H-pyrazole-4-amine dihydrochloride], the mortality at 500 ppm in the experiment with Aphis gossypii (setting [1]) and in the experiment on Myzus persicae (setting [2]) was not below 90% throughout. Regarding `CCCNc1cn(-c2cccnc2)nc1Cl` [B-006, 3-chloro-N-n-propyl-1-(pyridin-3-yl)-1H-pyrazole-4-amine], the mortality at 500 ppm with Aphis gossypii (setting [1]), in the experiment with Nilaparvata lugens (setting [3]) and in the experiment with Myzus persicae (setting [2]) was not below 90% each time.

On to `C#CCNc1cn(-c2cccnc2)nc1Cl` [B-008, 3-chloro-N-(prop-2-ynyl)-1-(pyridin-3-yl)-1H-pyrazole-4-amine], for which the mortality at 500 ppm in the experiment on Aphis gossypii (setting [1]), in the experiment on Nilaparvata lugens (setting [3]) and in the experiment on Myzus persicae (setting [2]) was not below 90% each time. On to `Cc1nn(-c2cccnc2)cc1N` [B-009, 3-methyl-1-(pyridin-3-yl)-1H-pyrazole-4-amine], for which the mortality at 500 ppm in the experiment on Nilaparvata lugens (setting [3]) was not below 90%. Same read-out and setting: next, `FC(F)(F)CNc1cn(-c2cccnc2)nc1Cl` [B-012, 3-chloro-1-(pyridin-3-yl)-N-(2,2,2-trifluoroethyl)-1H-pyrazole-4-amine]: not below 90%.

As to `CCNc1cn(-c2cccnc2)nc1C(F)(F)F` [B-018, N-ethyl-1-(pyridin-3-yl)-3-(trifluoromethyl)-1H-pyrazole-4-amine], the mortality at 500 ppm with Nilaparvata lugens (setting [3]) and in the experiment with Myzus persicae (setting [2]) was not below 90% throughout.

In the case of `Nc1cn(-c2cccnc2)nc1Cl` [B-021, 3-chloro-1-(pyridin-3-yl)-1H-pyrazole-4-amine], the mortality at 500 ppm in the experiment with Nilaparvata lugens (setting [3]) was not below 90%. As for `CSCCCNc1cn(-c2cccnc2)nc1Cl` [C-001, 3-chloro-N-{3-(methylthio)propyl}-1-(pyridin-3-yl)-1H-pyrazole-4-amine], the mortality at 500 ppm in the experiment on Nilaparvata lugens (setting [3]) and with Myzus persicae (setting [2]) was not below 90% throughout. On to `CSCCNc1cn(-c2cccnc2)nc1Cl` [C-002, 3-chloro-N-{2-(methylthio)ethyl}-1-(pyridin-3-yl)-1H-pyrazole-4-amine], for which the mortality at 500 ppm in the experiment with Nilaparvata lugens (setting [3]) and with Myzus persicae (setting [2]) was not below 90% throughout. `CC(C)(C)OC(=O)Nc1cnn(C(C)(C)C)c1Cl` [F-001, tert-butyl 1-tert-butyl-5-chloro-1H-pyrazol-4-ylcarbamate]: the mortality at 500 ppm with Nilaparvata lugens (setting [3]) was not below 90%. `CN(C(=O)OC(C)(C)C)c1cnn(C(C)(C)C)c1Cl` [G-002, tert-butyl 1-tert-butyl-5-chloro-1H-pyrazol-4-yl(methyl)carbamate] registered a mortality at 500 ppm in the experiment on Myzus persicae not below 90%. For the molecule `CCNc1cnn(C(C)(C)C)c1Cl` [H-001, 1-tert-butyl-5-chloro-N-ethyl-1H-pyrazole-4-amine hydrochloride], the mortality at 500 ppm with Myzus persicae (setting [2]) was not below 90%. The same measure, in the same setting: then `CCSC(C)C(=O)N(CC)c1c[nH]nc1Cl` (stereo not shown) [J-001, N-(3-chloro-1H-pyrazol-4-yl)-N-ethyl-2-(ethylthio)propanamide], with not below 90%.

The record behind these values is US20130338367A1, “PYRAZOLE DERIVATIVES AND PESTICIDES” (Nissan Chemical Industries, Ltd., priority 2011, published 2013).
